{
  "source": "paper PMC9370283",
  "about": "“New Quinoxaline-Based Derivatives as PARP-1 Inhibitors: Design, Synthesis, Antiproliferative, and Computational Studies” (Molecules, 2022)",
  "key": {"PARP-1": {"target": "T1, PARP-1 (Homo sapiens, UniProt P09874)", "T1 construct": "purchased BPS Bioscience 80580", "T1 sequence (P09874 whole entry)": "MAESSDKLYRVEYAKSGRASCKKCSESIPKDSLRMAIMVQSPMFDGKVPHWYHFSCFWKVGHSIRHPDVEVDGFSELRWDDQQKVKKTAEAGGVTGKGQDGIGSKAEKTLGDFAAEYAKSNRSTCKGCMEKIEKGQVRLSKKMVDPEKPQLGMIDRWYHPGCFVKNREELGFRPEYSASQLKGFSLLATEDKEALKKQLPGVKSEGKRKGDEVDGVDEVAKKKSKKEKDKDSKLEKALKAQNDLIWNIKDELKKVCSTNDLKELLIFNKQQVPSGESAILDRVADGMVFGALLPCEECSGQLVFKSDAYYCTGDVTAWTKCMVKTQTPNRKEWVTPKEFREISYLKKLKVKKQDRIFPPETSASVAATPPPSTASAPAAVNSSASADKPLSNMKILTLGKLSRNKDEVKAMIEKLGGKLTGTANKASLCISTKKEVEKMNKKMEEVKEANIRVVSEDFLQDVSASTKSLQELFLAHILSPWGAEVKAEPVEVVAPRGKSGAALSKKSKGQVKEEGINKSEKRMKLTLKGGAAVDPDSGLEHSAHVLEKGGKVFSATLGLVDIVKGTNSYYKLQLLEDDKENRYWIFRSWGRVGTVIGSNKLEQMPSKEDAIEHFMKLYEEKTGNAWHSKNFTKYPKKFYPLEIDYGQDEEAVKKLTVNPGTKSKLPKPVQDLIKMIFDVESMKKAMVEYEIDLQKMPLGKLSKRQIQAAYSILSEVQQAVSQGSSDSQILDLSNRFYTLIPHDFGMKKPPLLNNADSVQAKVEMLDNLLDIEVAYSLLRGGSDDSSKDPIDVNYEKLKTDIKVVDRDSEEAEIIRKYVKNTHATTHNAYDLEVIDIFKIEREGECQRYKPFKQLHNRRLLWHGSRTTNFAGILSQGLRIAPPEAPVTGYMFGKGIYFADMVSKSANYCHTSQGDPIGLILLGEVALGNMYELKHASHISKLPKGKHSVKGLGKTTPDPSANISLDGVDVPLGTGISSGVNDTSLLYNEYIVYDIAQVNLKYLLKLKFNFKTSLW", "assay": "colorimetric 96-well PARP-1 assay kit (BPS Bioscience)", "format": "biochemical"}, "WI-38": {"tested_on": "WI-38", "assay": "cytotoxicity against normal cells, MTT assay, WI-38", "format": "cell-based", "details": "Homo sapiens, normal cell line, read-out: IC50 (mean ± SEM) WI-38", "protocol": "It has been reported that the frequency and severity of the side effects on normal healthy cells at therapeutic levels are deemed to be critical factors that distinguish different anticancer drugs from each other. […]\nto the wells designated as “Blank”. The amount of PARP-1 required for the assay was then calculated. The reaction was initiated by adding 20 µL of diluted PARP-1 en zy me to the wells designated “Positive Control” and “Test Inhibitor Control”. The strip wells were incubated at room temperature for 1 hou r. The strip wells were then wash ed three times with 200 µL of PBST buffer.\nThen, 50 µL of 50 times diluted Streptavidin-HRP with blocking buffer was added to each well, and the strips were further incubated at room temperature for 30 min. After washing the wells three times with 200 µL of PBST buffer, HRP colorimetric substrate was added to each well, and the plate was incubated at room temperature until a blue color was developed in the positive control well. Then, the reaction was quenched with 100 µL per well of 2 M sulfuric acid. Carrier solvent (DMSO 5%, v/v) was used as a negative control. All compounds including Ol ap arib were t ested at 5 concentrations (100, 10, 1, 0.1, and 0.01 µM). The optical density (OD) of each well was measured spectrophotometrically at 450 nm with an ELISA microplate reader (ChroMate-4300, FL, USA). The IC50 values were calculated according to the equation for Boltzmann sigmoidal concentration-response curves using the nonlin ear regression fitting model (GraphPad Prism Version 8). All assays were performed in triplicate in 3 repeated experiments. The obtained data are presented as means standard error of the means from 3 independent repeats (n = 3).\n4.3.In vitro anticancer screening\nThe cell lines were purchased from the American Type Culture collection as follows:\nBreast Cancer cell lines (MDA-MB-436) and WI38. Cytotoxic activity screening was performed using MTT assay. Exponentially, cells were placed in 10^4 cells/ well for 24 h, and then add fresh med ium containing different concen trations of the tested sample. Serial two-fold dilutions of the tested sample were added using a multichannel pipette. Moreover, all cells were cultivated at 37 °C, with 5% CO2 and 95% humidity. Also, incubation of control cells occurred at 3 7 ° C . […] Rinse the wells using water until no stain. After that, add 30% g lacial acetic acid to all wells with shaking plates on a Microplate reader (TECAN, Inc.) to measure the absorbance, using a test wavelength of 490 nm. Besides, compare the treated samples with the control cell. The cytotoxicity was estimated by IC50 in (μg /mL), the concentration that inhibits 50% of the growth of the examined cell."}, "MDA-MB-436 cells [1]": {"tested_on": "MDA-MB-436 cells", "assay": "Cyto-ID autophagy assay, flow cytometry", "details": "IC50 value of compound, 24 h", "description": "medium was used as a negative control.\n(§1) Mean net fluorescent intensities (NFI) were quantified."}, "MDA-MB-436": {"tested_on": "MDA-MB-436", "assay": "in vitro cytotoxicity, MTT assay, MDA-MB-436", "details": "for % viability MDA-MB-436: MTT lab report"}, "MDA-MB-436 cells [2]": {"tested_on": "MDA-MB-436 cells", "assay": "cell cycle analysis, PI staining, flow cytometry", "details": "IC50 concentration 2.57 µM, 48 h", "description": "medium was used as a negative control.\nas §1"}, "MDA-MB-436 cells [3]": {"tested_on": "MDA-MB-436 cells", "assay": "Annexin V-FITC/PI apoptosis assay, flow cytometry", "details": "IC50 concentration, 48 h", "description": "medium was used as a negative control.\nas §1"}},
  "data": [
    {"smiles": "Cc1cc(C)n(S(=O)(=O)c2ccc3[nH]c(=O)c(=O)[nH]c3c2)n1", "note": "[Compound 5, 6-((3,5-Dimethyl-1H-pyrazol-1-yl)sulfonyl)-1,4-dihydroquinoxaline-2,3-dione]", "values": [
      {"measurement": "fold higher PARP-1 inhibitory activity than Olaparib", "setting": "PARP-1; ratio of IC50 values", "value": 1.5, "unit": "fold"},
      {"measurement": "IC50", "setting": "PARP-1; read-out: IC50 (mean ± SEM) PARP-1", "value": "3.05 ± 0.16", "unit": "nM"},
      {"measurement": "IC50", "setting": "WI-38", "value": "81700 ± 1700", "unit": "nM"},
      {"measurement": "increase of autophagic cell death", "setting": "MDA-MB-436 cells [1]", "value": 68.65, "unit": "%"},
      {"measurement": "SI", "setting": "MDA-MB-436; MDA-MB-436, matches IC50 WI-38 / IC50 MDA-MB-436", "value": 31.77},
      {"measurement": "% viability MDA-MB-436", "setting": "MDA-MB-436; log conc. 0.193 (1.6uM)", "value": 53.46, "unit": "%"},
      {"measurement": "% viability MDA-MB-436", "setting": "MDA-MB-436; log conc. 0.796 (6.3uM)", "value": 45.17, "unit": "%"},
      {"measurement": "% viability MDA-MB-436", "setting": "MDA-MB-436; log conc. 1.398 (25uM)", "value": 37.05, "unit": "%"},
      {"measurement": "% viability MDA-MB-436", "setting": "MDA-MB-436; log conc. 2 (100uM)", "value": 28.36, "unit": "%"},
      {"measurement": "% viability MDA-MB-436", "setting": "MDA-MB-436; log conc. -0.409 (0.4uM)", "value": 60.26, "unit": "%"},
      {"measurement": "IC50", "setting": "MDA-MB-436; read-out: IC50 (mean ± SEM) MDA-MB-436, mutant BRCA1 breast cancer cells, MTT", "value": "2570 ± 150", "unit": "nM"},
      {"measurement": "times more potent than the reference drug (antiproliferative, MDA-MB-436)", "setting": "MDA-MB-436; versus Olaparib", "value": "approximately 4 times"},
      {"measurement": "cell number in sub-G1 stage", "setting": "MDA-MB-436 cells [2]; control 1.76%", "value": 1.66, "unit": "%"},
      {"measurement": "percentage of cells in G2 stage", "setting": "MDA-MB-436 cells [2]; control 25.12%", "value": 30.39, "unit": "%"},
      {"measurement": "cell distribution in G1 phase", "setting": "MDA-MB-436 cells [2]; control 51.96%", "value": 40.89, "unit": "%"},
      {"measurement": "normal intact cells (Q2-3)", "setting": "MDA-MB-436 cells [3]", "value": 96.98, "unit": "%"},
      {"measurement": "early apoptotic cell population (Q2-4)", "setting": "MDA-MB-436 cells [3]; control 0.14%", "value": 0.27, "unit": "%"},
      {"measurement": "late apoptotic cell population (Q2-2)", "setting": "MDA-MB-436 cells [3]; control 0.98%", "value": 1.02, "unit": "%"},
      {"measurement": "necrotic cell population (Q2-1)", "setting": "MDA-MB-436 cells [3]; control 1.11%", "value": 1.72, "unit": "%"}
    ]}
  ]
}
